Measurements published in patent US8551984B2, “Aminopyrimidines as SYK inhibitors” (Merck Sharp & Dohme Corp., priority 2009, dated 2013).
Read-outs that look alike come from different tables or passages of the source.

Biological target: recombinant human SYK (GST-hSYK fusion protein) (Homo sapiens, UniProt P43405)
[1] = read-out: rhSYK Activity, Table 33B
[2] = read-out: rhSYK Activity (IC50), recombinant human GST-SYK 5 pM, ATP 25 μM, biotinylated substrate peptide 250 nM, HTRF, 10-dose titration
[3] = read-out: rhSYK Activity, Table 54D
[4] = read-out: rhSYK Activity, Table 113B
[5] = read-out: rhSYK Activity, Table 54B
[6] = read-out: rhSYK Activity, Table 113A
[7] = read-out: rhSYK Activity, Table 33D
[8] = read-out: rhSYK Activity, Table 33C
[9] = read-out: rhSYK Activity, Table 33-A

From the text: Homogeneous Time-Resolved Fluorescence (HTRF) Assay for the Recombinant Human SYK Enzyme:

Cc1cc(Nc2nccc(C(F)(F)F)n2)cc(-c2cnc(C3(O)CCC(CC(=O)O)C3)s2)c1 (single isomer, unassigned) [Example 33B-27]
IC50 [1]: < 100 nM

Cc1cc(Nc2nccc(C(O)C3CC3)n2)cc(-c2cnc(C3(O)CCC(C(=O)O)C(C)(C)C3)s2)c1 (single isomer, unassigned) [Example 100A-19]
IC50 [2]: < 100 nM

Cc1cc(Nc2nccc(C(F)(F)F)n2)cc(-c2cnc(C3(O)CCC(CC(=O)O)C3)s2)c1 (single isomer, unassigned) [Example 33B-28]
IC50 [1]: < 100 nM

Cc1cc(Nc2nccc(C(F)(F)F)n2)cc(-c2cnc(C3(O)CCCN(C(=O)c4nn[nH]c4C(F)(F)F)CC3)s2)c1 (single isomer, unassigned) [Example 54D-108]
IC50 [3]: < 100 nM

Cc1cc(Nc2nccc(C)n2)cc(-c2cnc(C3(O)CC(C)C(C(=O)O)CC3C)s2)c1 (centres unmarked) [Example 113B-4]
IC50 [4]: < 100 nM

Cc1cc(Nc2nccc(C)n2)cc(-c2cnc(C3(O)CCN(C(N)=O)C3)s2)c1 (centres unmarked) [54B-15]
IC50 [5]: < 100 nM

Cc1cc(Nc2nccc(C)n2)cc(-c2cnc(C3(O)CCC(C(=O)O)C(C(C)C)C3)s2)c1 (centres unmarked) [Example 33B-34]
IC50 [1]: < 100 nM

CCOC(=O)C1CCC(O)(c2ncc(-c3cc(C)cc(Nc4nccc(OCCCOC)n4)c3)s2)CC1C (centres unmarked) [Example 113A-48]
IC50 [6]: < 100 nM

Cc1cc(Nc2nccc(C(F)(F)F)n2)cc(-c2cnc(C3(O)CCCN(C(=O)CC(N)=O)CC3)s2)c1 (single isomer, unassigned) [Example 54D-21]
IC50 [3]: < 100 nM

Cc1cc(Nc2nccc(C)n2)cc(-c2cnc(C3(O)CC(C)C(C(=O)O)CC3C)s2)c1 (centres unmarked) [Example 113B-2]
IC50 [4]: < 100 nM

Cc1cc(Nc2nccc(C(C)O)n2)cc(-c2cnc(C3(O)CCC(C(=O)O)C(C)(C)C3)s2)c1 (single isomer, unassigned) [Example 100A-15]
IC50 [2]: < 100 nM

Cc1cc(Nc2nccc(C)n2)cc(-c2cnc(C3(O)CCC(C(=O)O)CC3C)s2)c1 (centres unmarked) [Example 113A-86]
IC50 [6]: < 100 nM

Cc1cc(Nc2nccc(C(F)(F)F)n2)cc(-c2cnc(C(C)(O)c3ccc(C(=O)O)s3)s2)c1 (single isomer, unassigned) [Example 33D-22]
IC50 [7]: < 100 nM

Cc1cc(Nc2nccc(C)n2)cc(-c2cnc(C3(O)CC(C)C(C(=O)O)C(C)C3)s2)c1 (centres unmarked) [Example 113B-22]
IC50 [4]: < 100 nM

Cc1cc(Nc2nccc(OC3CCCNCC3)n2)cc(-c2cnc(C3(O)CCC3)s2)c1 (centres unmarked) [Example 108A-11]
IC50 (read-out: rhSYK Activity, Table 108A): < 100 nM

CCOC(=O)C1CCC(O)(c2ncc(-c3cc(C)cc(Nc4nccc(CC)n4)c3)s2)CC1C (centres unmarked) [Example 113A-32]
IC50 [6]: < 100 nM

Cc1cc(Nc2nccc(C)n2)cc(-c2cnc(C3(O)CCC(C(=O)O)CC3C)s2)c1 (centres unmarked) [Example 113A-82]
IC50 [6]: < 100 nM

Cc1cc(Nc2nccc(C(F)(F)F)n2)cc(-c2cnc(C3(O)CCCN(C(=O)c4cnn[nH]4)CC3)s2)c1 (centres unmarked) [Example 54D-35]
IC50 [3]: < 100 nM

Cc1cc(Nc2nccc(C(F)(F)F)n2)cc(-c2cnc(C(C)(O)c3ccc(C(=O)O)cn3)s2)c1 (centres unmarked) [Example 113D-6]
IC50 (read-out: rhSYK Activity, Table 113D, upper part): < 100 nM

Cc1cc(Nc2nccc(C(F)(F)F)n2)cc(-c2cnc(C3CCC(C(N)=O)C(C)(C)C3)s2)c1 (single isomer, unassigned) [154(c), 2,2-Dim ethyl-4-[5-(3-methyl-5-{[4-(trifluoromethyl)pyrimidin-2-yl]amino}phenyl)-1,3-thiazol-2-yl]cyclohexanecarboxamide]
IC50 [2]: < 100 nM

CC(C)(c1ncc(-c2cc(F)cc(Nc3nccc(C(F)(F)F)n3)c2)s1)S(N)(=O)=O [74A-10]
IC50 (read-out: rhSYK Activity, Table 74A): 100 to 1000 nM

Cc1cc(Nc2nccc(C(F)(F)F)n2)cc(-c2cnc(C3(O)CCN(C(N)=O)C3)s2)c1 (centres unmarked) [54B-7]
IC50 [5]: < 100 nM

Cc1cc(Nc2nccc(C(F)(F)F)n2)cc(-c2cnc(CNC(CO)C(C)O)s2)c1 (single isomer, unassigned) [Example 88A-44]
IC50 [2]: < 100 nM

Cc1cc(Nc2nccc(C)n2)cc(-c2cnc(C3(O)CC(C)C(C(=O)O)CC3C)s2)c1 (centres unmarked) [Example 113B-1]
IC50 [4]: < 100 nM

Cc1cc(Nc2nccc(OC3CNC3)n2)cc(-c2cnc(C3(O)CCC3)s2)c1 [Example 94A-28]
IC50 [2]: < 100 nM

Cc1cc(Nc2nccc(C(F)(F)F)n2)cc(-c2cnc(C3(O)CC[C@H]4C(C(=O)O)[C@H]43)s2)c1 (single isomer, unassigned) [Example 33C-7]
IC50 [8]: < 100 nM

Cc1cc(Nc2nccc(C(F)F)n2)cc(-c2cnc(C3(O)CCC(C(=O)O)C(C)C3)s2)c1 (centres unmarked) [116A-19]
IC50 (read-out: rhSYK Activity, Table 116A): < 100 nM

Cc1cc(Nc2nccc(C(F)(F)F)n2)cc(-c2cnc(C3(O)CCCN(S(N)(=O)=O)CC3)s2)c1 (single isomer, unassigned) [Example 54D-117]
IC50 [3]: < 100 nM

COc1ccnc(Nc2cc(C)cc(-c3cnc(C4(O)CCC(C(=O)O)C(C)(C)C4)s3)c2)n1 (single isomer, unassigned) [Example 33A-73]
IC50 [9]: < 100 nM

Cc1cc(Nc2nccc(C(F)(F)F)n2)cc(-c2cnc(C3(O)CCCN(C(=O)c4cnnn4C)CC3)s2)c1 (single isomer, unassigned) [Example 54D-51]
IC50 [3]: < 100 nM

COCCCOc1ccnc(Nc2cc(C)cc(-c3cnc(C4(O)CCC(C(=O)O)C(C)C4)s3)c2)n1 (centres unmarked) [Example 113A-41]
IC50 [6]: < 100 nM

Cc1cc(Nc2nccc(O[C@@H]3CCNC3)n2)cc(-c2cnc(C(C)(O)C(F)(F)F)s2)c1 (some centres unmarked) [Example 94B-8]
IC50 [2]: < 100 nM

Cc1cc(Nc2nccc(C(F)(F)F)n2)cc(-c2cnc(C3(O)CC[C@H]4C(C(=O)O)[C@H]43)s2)c1 (single isomer, unassigned) [Example 33C-8]
IC50 [8]: < 100 nM

Cc1cc(Nc2nccc(C)n2)cc(-c2cnc(C3(O)CCC(C(=O)O)C(C)C3C)s2)c1 (centres unmarked) [Example 113A-67]
IC50 [6]: < 100 nM

Cc1cc(Nc2nccc(C(C)C)n2)cc(-c2cnc(C3(O)CCCNCC3)s2)c1 (centres unmarked) [113C-14]
IC50 (read-out: rhS YK Activity, Table 113C): < 100 nM

Cc1cc(Nc2nccc(C(F)(F)F)n2)cc(-c2cnc(C3(O)CCCN(C(=O)Cn4ccnn4)CC3)s2)c1 (single isomer, unassigned) [Example 54D-53]
IC50 [3]: < 100 nM

CCc1ccnc(Nc2cc(C)cc(-c3cnc(C4(O)CCC(C(=O)O)C(C)C4)s3)c2)n1 (centres unmarked) [Example 113A-15]
IC50 [6]: < 100 nM

CCOC(=O)C1CCC(O)(c2ncc(-c3cc(C)cc(Nc4nccc(C)n4)c3)s2)C(C)C1C (centres unmarked) [Example 113A-72]
IC50 [6]: < 100 nM

Cc1cc(Nc2nccc(C(F)(F)F)n2)cc(-c2cnc(C3(O)CCCC(C(=O)O)C(C)(C)C3)s2)c1 (centres unmarked) [Example 33B-9]
IC50 [1]: < 100 nM

Cc1cc(Nc2nccc(C(F)(F)F)n2)cc(-c2cnc(C(=O)NC[C@@H](O)CO)s2)c1 [Example 87A-4]
IC50 [2]: < 100 nM

Cc1cc(Nc2nccc(C(F)(F)F)n2)cc(-c2cnc(C3(O)CCCN(C(=O)c4nnnn4C)CC3)s2)c1 (single isomer, unassigned) [Example 54D-58]
IC50 [3]: < 100 nM

Cc1cc(Nc2nccc(C)n2)cc(-c2cnc(C3(O)CCC(C(=O)O)C(C)C3)s2)c1 (centres unmarked) [Example 113A-7]
IC50 [6]: < 100 nM

Cc1cc(Nc2nccc(C)n2)cc(-c2cnc(C3(O)CCN(C(N)=O)C3)s2)c1 (centres unmarked) [54B-14]
IC50 [5]: < 100 nM

Cc1cc(Nc2ncc(Cl)cn2)cc(-c2cnc(C3(O)CCC(C(=O)O)C(C)(C)C3)s2)c1 (single isomer, unassigned) [Example 33A-44]
IC50 [9]: < 100 nM

Cc1cc(Nc2nccc(C(F)(F)F)n2)cc(-c2cnc([C@]3(O)CCC(=O)NC[C@H]3O)s2)c1 (relative stereo) [161(A), [cis]5,6-dihydroxy-5-[5-(3-methyl-5-{[4-(trifluoromethyl)pyrimidin-2-yl]amino}phenyl)-1,3-thiazol-2-yl]azepan-2-one]
IC50 [2]: < 100 nM

Cc1cc(Nc2nccc(C)n2)cc(-c2cnc(C3(O)CCC(C(=O)O)CC3C)s2)c1 (centres unmarked) [Example 113A-83]
IC50 [6]: < 100 nM

Cc1cc(Nc2nccc(C(F)(F)F)n2)cc(-c2cnc(C3(O)CCCN(C(=O)c4n[nH]c(=O)[nH]4)CC3)s2)c1 (centres unmarked) [Example 54D-63]
IC50 [3]: < 100 nM

Cc1cc(Nc2nccc(C(F)(F)F)n2)cc(-c2cnc(C3(O)CCCN(C(=O)c4[nH]nnc4Cl)CC3)s2)c1 (single isomer, unassigned) [Example 54D-101]
IC50 [3]: < 100 nM

Cc1cc(Nc2nccc(C(F)(F)F)n2)cc(-c2cnc(C3(O)CCC(C(=O)O)CC3)s2)c1 (centres unmarked) [Example 33A-6]
IC50 [9]: < 100 nM

Cc1cc(Nc2nccc(C(F)(F)F)n2)cc(-c2cnc(C3(O)CCCN(C(=O)Cc4n[nH]c(=O)[nH]4)CC3)s2)c1 (centres unmarked) [Example 54D-94]
IC50 [3]: < 100 nM

Cc1ccnc(Nc2cc(-c3cnc(C4(O)CCC(C(=O)O)C(C)C4)s3)cc(C3CC3)c2)n1 (centres unmarked) [Example 113A-24]
IC50 [6]: < 100 nM

Cc1cc(Nc2nccc(C(F)(F)F)n2)cc(-c2cnc(C3(O)CC(C)C(C(=O)O)CC3C)s2)c1 (centres unmarked) [Example 113B-16]
IC50 [4]: < 100 nM

Cc1cc(Nc2nccc(C(F)(F)F)n2)cc(-c2cnc(C3(O)CCCN(C(=O)CC4CCOC4)CC3)s2)c1 (centres unmarked) [Example 54D-69]
IC50 [3]: < 100 nM

Cc1cc(Nc2nccc(C)n2)cc(-c2cnc(C3(O)CCC(C(=O)O)C(C)C3)s2)c1 (centres unmarked) [Example 113A-5]
IC50 [6]: < 100 nM

Cc1cc(Nc2nccc(C(F)(F)F)n2)cc(-c2cnc(C3(O)CC(C)C(C(=O)O)CC3C)s2)c1 (centres unmarked) [Example 113B-13]
IC50 [4]: < 100 nM

Cc1cc(Nc2nccc(C(F)(F)F)n2)cc(-c2cnc(C3(O)CC(C)C(C(=O)O)C(C)C3)s2)c1 (centres unmarked) [Example 113B-25]
IC50 [4]: < 100 nM

CCOC(=O)CC(=O)N1CCCC(O)(c2ncc(-c3cc(C)cc(Nc4nccc(C(F)(F)F)n4)c3)s2)CC1 (single isomer, unassigned) [Example 54D-74]
IC50 [3]: < 100 nM

COCCOc1ccnc(Nc2cc(C)cc(-c3cnc(C4(O)CCC(C(=O)O)C(C)C4)s3)c2)n1 (centres unmarked) [Example 113A-39]
IC50 [6]: < 100 nM

Cc1cc(Nc2nccc(C(F)(F)F)n2)cc(-c2cnc(C(C)(O)CCC(C)(C)C(=O)O)s2)c1 (single isomer, unassigned) [Example 33D-2]
IC50 [7]: < 100 nM
